These results are taken from patent publication US6737383B1, “Herbicidal oxadiazolidines” (priority 1999, dated 2004).

One experiment has as its system morningglory. The experiment is described as follows: Test B pre/postemergence morningglory. It counts as in vivo, Ipomoea hederacea. A digest of the protocol:
(§1)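 Test chemicals in a non-phytotoxic solvent mixture with surfactant were sprayed preemergence onto planted seeds and postemergence onto plants 2 to 18 cm tall (1- to 4-leaf stage). After twelve to sixteen days in a greenhouse, injury was visually rated against untreated controls from 0 (no effect) to 10 (complete control).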

The test system of the next experiment is giant foxtail. The experiment is described as follows: Test B pre/postemergence giant foxtail. It counts as in vivo, Setaria faberii. The method, boiled down: as §1
The test system of a further experiment is pigweed. The experiment is described as follows: Test B pre/postemergence pigweed. The class given is in vivo, Amaranthus retroflexus. A digest of the protocol:
as §1

Where [1] appears, read: Postemergence, Rate 62 g/ha, scale 0 to 10, 0 is no effect, 10 is complete control.
[2] abbreviates: Postemergence, Rate 125 g/ha, scale of 0 to 10 where 0 is no effect and 10 is complete control.
Where [3] appears, read: Postemergence, Rate 250 g/ha, scale of 0 to 10, 0 is no effect, 10 is complete control.
Setting [4] is: Postemergence, Rate 500 g/ha, scale of 0 to 10 where 0 is no effect and 10 is complete control.
The mark [5] stands for this setting: Preemergence, Rate 62 g/ha, scale 0 to 10 (0 no effect, 10 complete control).
Where [6] appears, read: Preemergence, Rate 125 g/ha, scale of 0 to 10 where 0 is no effect and 10 is complete control.
Where [7] appears, read: Preemergence, Rate 250 g/ha, scale 0 to 10 (0 no effect, 10 complete control).
The mark [8] stands for this setting: Preemergence, Rate 500 g/ha, scale of 0 to 10 where 0 is no effect and 10 is complete control.
[9] abbreviates: Preemergence, Rate 62 g/ha, scale of 0 to 10 where 0 is no effect and 10 is complete control.
[10] abbreviates: Preemergence, Rate 250 g/ha, scale of 0 to 10 where 0 is no effect and 10 is complete control.
Where [11] appears, read: Rate 62 g/ha, Postemergence, scale of 0 to 10 where 0 is no effect and 10 is complete control.
Where [12] appears, read: Rate 125 g/ha, Postemergence, scale 0 to 10.
Where [13] appears, read: Rate 125 g/ha, Preemergence, scale of 0 to 10 where 0 is no effect and 10 is complete control.
Setting [14] is: Rate 500 g/ha, Postemergence, scale 0 to 10, 0 no effect, 10 complete control.
Where [15] appears, read: Postemergence, Rate 250 g/ha, scale 0 to 10, 0 no effect, 10 complete control.
The mark [16] stands for this setting: Preemergence, Rate 125 g/ha, scale 0 to 10 (0 no effect, 10 complete control).
[17] abbreviates: Preemergence, Rate 500 g/ha, scale 0 (no effect) to 10 (complete control).
Setting [18] is: Rate 125 g/ha, Postemergence, scale 0 to 10, 0 no effect, 10 complete control.
Setting [19] is: Preemergence, Rate 125 g/ha, 0 is no effect, 10 is complete control.
Setting [20] is: Preemergence, Rate 250 g/ha, scale 0 to 10, 0 is no effect, 10 is complete control.
Setting [21] is: Rate 500 g/ha, Postemergence, scale 0 to 10.

Take `CC(=O)NCn1c(=O)on(C(=O)N(c2ccccc2)C(C)C)c1=O` [Compound 621]: the “Plant response rating, Morningglory” value worked out at 1 with morningglory (setting [1]); 2 in the experiment with morningglory (setting [2]); 8 in the experiment on morningglory (setting [4]); 0 in the experiment on morningglory (setting [7]); 0 in the experiment with morningglory (setting [8]). Also, the “Morningglory plant response rating” value with morningglory (setting [3]) amounted to 2; in the experiment with morningglory (setting [5]), 0; with morningglory (setting [6]), 0. In addition, the “Plant response rating, Giant foxtail” value with giant foxtail (setting [1]) was determined as 0; in the experiment on giant foxtail (setting [2]), 0; with giant foxtail (setting [4]), 7; in the experiment with giant foxtail (setting [7]), 7; with giant foxtail (setting [8]) it was 10. Also, the “Giant foxtail plant response rating” value was 1 in the experiment on giant foxtail (setting [3]), 0 with giant foxtail (setting [5]) and 7 in the experiment with giant foxtail (setting [6]). The “Plant response rating, Redroot pigweed” value in the experiment with pigweed (setting [1]), in the experiment with pigweed (setting [2]), in the experiment with pigweed (setting [7]) and with pigweed (setting [8]) was 0 in each case. Besides, the “Redroot pigweed plant response rating” value in the experiment with pigweed (setting [3]), with pigweed (setting [5]) and in the experiment on pigweed (setting [6]) was 0 each time.
For `Cc1cc(C)c(-n2c(=O)on(C(=O)N(c3ccc(F)cc3)C(C)C)c2=O)c(Br)c1` [Compound 224], the “Morningglory plant response rating” value with morningglory (setting [9]) is on record as 0; in the experiment with morningglory (setting [10]), 0; in the experiment on morningglory (setting [11]), 2; with morningglory (setting [12]), 2; with morningglory (setting [13]), 0; with morningglory (setting [14]), 6. Also, in the experiment on morningglory (setting [8]), the “Plant response rating, Morningglory” value was 0. Further, the “Plant response rating (0 to 10; 0 is no effect, 10 is complete control), Morningglory” value in the experiment with morningglory (Rate 250 g/ha, Postemergence) is 5. Moreover, the “Giant foxtail plant response rating” value is given as 3 with giant foxtail (setting [9]); 9 in the experiment on giant foxtail (setting [10]); 0 in the experiment with giant foxtail (setting [11]); 0 in the experiment with giant foxtail (setting [12]); 7 in the experiment on giant foxtail (setting [13]); 0 with giant foxtail (setting [14]). Further, the “Plant response rating, Giant foxtail” value in the experiment with giant foxtail (setting [8]) is reported as 10. Further, the “Plant response rating (0 to 10; 0 is no effect, 10 is complete control), Giant foxtail” value with giant foxtail (Rate 250 g/ha, Postemergence) was 4. The “Redroot pigweed plant response rating” value is 0 with pigweed (setting [9]); 0 in the experiment with pigweed (setting [10]); 0 with pigweed (setting [11]); 2 in the experiment on pigweed (setting [12]); 0 in the experiment with pigweed (setting [13]); 7 with pigweed (setting [14]). Also, the “Plant response rating, Redroot pigweed” value in the experiment with pigweed (setting [8]) is recorded as 4. Moreover, the “Plant response rating (0 to 10; 0 is no effect, 10 is complete control), Redroot pigweed” value in the experiment with pigweed (Rate 250 g/ha, Postemergence) was 4.
For `CCN(C(=O)n1oc(=O)n(Cc2cccs2)c1=O)C1CCCCC1` [Compound 82], the “Morningglory plant response rating” value in the experiment with morningglory (setting [1]) is given as 4; in the experiment on morningglory (setting [15]) it was 10; in the experiment on morningglory (setting [5]), 0; in the experiment on morningglory (setting [17]), 0; in the experiment with morningglory (setting [18]) it was 7; in the experiment on morningglory (setting [14]) it was 10. Further, the “Plant response rating, Morningglory” value in the experiment on morningglory (setting [16]) and in the experiment on morningglory (setting [10]) was 0 throughout. The “Giant foxtail plant response rating” value in the experiment with giant foxtail (setting [1]), with giant foxtail (setting [15]), with giant foxtail (setting [5]), with giant foxtail (setting [17]), with giant foxtail (setting [18]) and in the experiment with giant foxtail (setting [14]) was 0 in each case. Besides, the “Plant response rating, Giant foxtail” value in the experiment with giant foxtail (setting [16]) and with giant foxtail (setting [10]) was 0 in each case. Besides, the “Redroot pigweed plant response rating” value in the experiment with pigweed (setting [1]), in the experiment with pigweed (setting [15]), in the experiment with pigweed (setting [5]), in the experiment with pigweed (setting [17]), with pigweed (setting [18]) and in the experiment on pigweed (setting [14]) was 0 each time. The “Plant response rating, Redroot pigweed” value in the experiment with pigweed (setting [16]) and in the experiment with pigweed (setting [10]) was 0 in each case.
`Cc1ccccc1-n1c(=O)on(C(=O)N(c2ccc(S(C)(=O)=O)cc2)C(C)C)c1=O` [Compound 203]: the “Morningglory plant response rating” value with morningglory (setting [9]), in the experiment with morningglory (setting [20]), with morningglory (setting [11]), in the experiment with morningglory (setting [12]) and in the experiment on morningglory (setting [21]) was 0 in each case. For the same compound, the “Morningglory plant response rating (0 to 10 scale)” value with morningglory (setting [19]) is recorded as 0. Moreover, the “Plant response rating, Morningglory” value with morningglory (setting [8]) amounted to 0. Further, the “Plant response rating (0 to 10; 0 is no effect, 10 is complete control), Morningglory” value in the experiment with morningglory (Rate 250 g/ha, Postemergence) is given as 0. Besides, the “Giant foxtail plant response rating” value with giant foxtail (setting [9]), in the experiment on giant foxtail (setting [20]), in the experiment with giant foxtail (setting [11]), in the experiment with giant foxtail (setting [12]) and in the experiment on giant foxtail (setting [21]) was 0 each time. Besides, in the experiment with giant foxtail (setting [19]), the “Giant foxtail plant response rating (0 to 10 scale)” value came to 0. Moreover, in the experiment on giant foxtail (setting [8]), the “Plant response rating, Giant foxtail” value came out at 0. In the experiment with giant foxtail (Rate 250 g/ha, Postemergence), the “Plant response rating (0 to 10; 0 is no effect, 10 is complete control), Giant foxtail” value was 0. The “Redroot pigweed plant response rating” value in the experiment on pigweed (setting [9]), with pigweed (setting [20]), in the experiment with pigweed (setting [11]), in the experiment on pigweed (setting [12]) and in the experiment with pigweed (setting [21]) was 0 throughout. Moreover, the “Redroot pigweed plant response rating (0 to 10 scale)” value with pigweed (setting [19]) worked out at 0. Besides, the “Plant response rating, Redroot pigweed” value in the experiment with pigweed (setting [8]) is listed as 0. The “Plant response rating (0 to 10; 0 is no effect, 10 is complete control), Redroot pigweed” value in the experiment with pigweed (Rate 250 g/ha, Postemergence) was found to be 0.
Consider `CCC(C)N(C(=O)n1oc(=O)n(-c2ccccc2C)c1=O)c1ccc(F)cc1` (centres unmarked) [Compound 239], for which the “Morningglory plant response rating” value in the experiment with morningglory (setting [9]) worked out at 0; in the experiment with morningglory (setting [10]) it was 0; in the experiment on morningglory (setting [11]) it was 1; with morningglory (setting [13]), 0; in the experiment on morningglory (setting [14]), 9. The “Plant response rating, Morningglory” value in the experiment on morningglory (setting [8]) worked out at 0. In addition, the “Plant response rating (0 to 10; 0 is no effect, 10 is complete control), Morningglory” value in the experiment with morningglory (Rate 250 g/ha, Postemergence) is listed as 3. Moreover, the “Giant foxtail plant response rating” value was 4 in the experiment on giant foxtail (setting [9]); 10 in the experiment on giant foxtail (setting [10]); 0 in the experiment on giant foxtail (setting [11]); 10 with giant foxtail (setting [13]); 6 in the experiment with giant foxtail (setting [14]). Besides, the “Plant response rating, Giant foxtail” value with giant foxtail (setting [8]) is 10. For the same compound, the “Plant response rating (0 to 10; 0 is no effect, 10 is complete control), Giant foxtail” value with giant foxtail (Rate 250 g/ha, Postemergence) came to 1. Moreover, the “Redroot pigweed plant response rating” value turned out to be 0 in the experiment on pigweed (setting [9]); 0 in the experiment on pigweed (setting [10]); 0 in the experiment with pigweed (setting [11]); 0 in the experiment on pigweed (setting [13]); 7 in the experiment on pigweed (setting [14]). The “Plant response rating, Redroot pigweed” value in the experiment with pigweed (setting [8]) was 0. In addition, the “Plant response rating (0 to 10; 0 is no effect, 10 is complete control), Redroot pigweed” value with pigweed (Rate 250 g/ha, Postemergence) was determined as 3.
